According to patent US20110028513A1, “METHOD FOR TREATING NEUROLOGICAL DISORDERS WITH IMIDAZOLIUM AND IMIDAZOLINIUM COMPOUNDS” (priority 2008, published 2011):
“Also recorded” adds a separate entry of the source.

Legend:
transgenic GFAP-GFP mice [1] = assay: In vivo retinal imaging (scanning laser ophthalmoscope) of GFP fluorescence in the optic disc of 2′-CH3-MPTP-treated mice
Experimental: (§1) The generation and genotyping of the transgenic GFAP (glial fibrillary acidic protein)-GFP (green fluorescent protein) mice were performed as previously described (Zhuo et al., 1997, See PCT Application No. PCT/SG2008/000159). Adult mice (8-10 weeks old) in the Friend virus B-Type (FVB/N) background were used in this study. Animal husbandry was provided by the Biological Resource Center (BRC) of Biopolis, Singapore. The experimental protocol for this study was approved by the Institutional Animal Care and Use Committee at BRC.
The synthesis of DBZIM has been described. (See PCT Application No. SG2009/000037, Zhang et al., 2007). The structure of DBZIM is illustrated in FIG. 1. […] The dosing regime is illustrated in FIG. 2. Mice in the DBZIM/neurotoxicant-treated group received an intraperitoneal (ip) injection of DBZIM (25 mg/kg in saline) 24 h before and after administering 4 ip injections of 2′-CH3-MPTP (15 mg/kg in saline; once every 2 h). Mice in the neurotoxicant-treated group were injected with 2′-CH3-MPTP only (4×15 mg/kg in saline; ip; once every 2 h). For each mouse in the DBZIM/neurotoxicant-treated group (n=5) and neurotoxicant-treated group (n=5), saline was used as a vehicle for the control group (n=6). Retinal imaging was performed before and after treatment.
Mice were anesthetized by ip injections with 0.15 ml/10 g body weight of Avertin (1.5% 2,2,2-tribromoethanol; T48402) purchased from Sigma-Aldrich (St. Louis, Mo., USA). Their pupils were dilated with a drop of 0.5% Cyclogyl® sterile ophthalmic solution (cyclopentolate hydrochloride, Alcon®, Puurs, Belgium). Custom-made polymethylmethacrylate (PMMA) hard contact lenses (Cantor & Nissel, Northamptonshire, UK) were used to avoid dehydration of the cornea. Careful examination by an eye specialist before scanning laser ophthalmoscope (SLO) imaging ruled out the presence of any corneal or lens opacity.
The second version of Heidelberg Retina Angiograph (HRA II) SLO (Heidelberg Engineering, Dossenheim, Germany) was modified for use on mice. SLO is an imaging technique based on the scanning of the fundus with a laser beam from a point source; the reflected light is detected by a photomultiplier. The incident and reflected light beams follow a co-axial path. Therefore, more light can pass through small eyes with SLO than with conventional fundus cameras. […]
Unlike magnetic resonance images (MRI) and in vitro fluorescent-labeled cell images, the in vivo fluorescence images of transgenic GFAP-GFP expression in the mouse retina have very low signal-to-noise ratio (SNR), which makes the quantitative analysis of the transgene expression difficult. […]

transgenic GFAP-GFP mice [2] = assay: Retinal whole-mount and cross-section immunohistochemistry (GFP/GFAP) for 2′-CH3-MPTP-induced gliosis; format: in vivo; details: DBZIM 25 mg/kg ip plus 2′-CH3-MPTP
Experimental: as §1
(§2) The synthesis of DBZIM has been described. (See PCT Application No. SG2009/000037, Zhang et al., 2007). The structure of DBZIM is illustrated in FIG. 1. […] The dosing regime is illustrated in FIG. 2. Mice in the DBZIM/neurotoxicant-treated group received an intraperitoneal (ip) injection of DBZIM (25 mg/kg in saline) 24 h before and after administering 4 ip injections of 2′-CH3-MPTP (15 mg/kg in saline; once every 2 h). […]
(§3) After perfusion with 1× PBS, followed by 4% fresh paraformaldehyde (in 1× PBS, pH 7.4), the mouse brains were harvested and the eyes enucleated. […] The retinas, free of the choroid and sclera tissues, were whole-mounted on a glass slide with Vectorshield mounting medium for fluorescence (Vector Laboratories, Inc., Burlingame, Calif., USA; H1000). […]

transgenic GFAP-GFP mice [3] = assay: Brain cryosection immunohistochemistry (GFP/TH) of striatum and SNpc after 2′-CH3-MPTP; format: in vivo; details: DBZIM 25 mg/kg ip plus 2′-CH3-MPTP
Experimental: as §1, §2, §3

SMILES | fluorescence intensity (FI) in the optic disc over saline control, in words (transgenic GFAP-GFP mice [1]; 2′-CH3-MPTP alone, 4 x 15 mg/kg ip, P<0.05, FIG. 4) | increase in GFP fluorescence of the optic disc (transgenic GFAP-GFP mice [1]; neurotoxicant alone, 4 x 15 mg/kg ip once every 2 h, versus saline control, FIG. 4) [%] | change in GFP fluorescence (fluorescence intensity) of the optic disc versus saline control (transgenic GFAP-GFP mice [1]; DBZIM 25 mg/kg ip 24 h before and after 4 x 15 mg/kg ip 2′-CH3-MPTP, quantified by algorithm, FIG. 4, day 4) | apparent retinal neurotoxicity in composite retinal images (transgenic GFAP-GFP mice [1]; DBZIM 25 mg/kg ip plus 2′-CH3-MPTP, FIG. 3) | gliosis in retinal whole-mounts (GFP green and GFAP red fluorescence, nerve fiber layer) (transgenic GFAP-GFP mice [2]; FIG. 5) | gliosis in retinal astrocytes and Müller cells (retinal cross-sections) (transgenic GFAP-GFP mice [2]; FIG. 6) | DA neuron depletion in the SNpc (TH immunoreactivity) (transgenic GFAP-GFP mice [3]; SNpc, FIG. 8) | striatal gliosis (GFP signal) (transgenic GFAP-GFP mice [3]; striatum, FIG. 7)
Cc1ccccc1C1=CCN(C)CC1 [2′-CH3-MPTP, methyl-4(2′-methylphenyl)-1,2,3,6-tetrahydropyridine, reference compound] | significant increase | 36 |  |  |  |  |  | 
[Br-].c1ccc(Cn2cc[n+](Cc3ccccc3)c2)cc1 [DBZIM, 1,3-bisbenzylimidazolium bromide] |  |  | no significant change; also recorded: prevented the 2′-CH3-MPTP-induced retinal toxicity | no apparent neurotoxicity | attenuated both green and red fluorescence to the basal levels; also recorded: significantly attenuates the gliosis | reduced the neurotoxicant-induced gliosis to close to the basal level; also recorded: significantly attenuated | A significant portion of the DA neurons is protected | cut down the gliosis in the striatum to a basal level; also recorded: significantly attenuates the neurotoxicity
